Test results from patent US12018253B2, “Method of detecting Polycomb Repressive Complex activity” (IMBA—INSTITUT FÜR MOLEKULARE BIOTECHNOLOGIE GMBH, priority 2017, dated 2024).
Non-standard residues stand in square brackets, D forms with d. Residues, ends and D or L forms follow the SMILES beside them. *: point of attachment. Benzoyl(4-tBu) = CC(C)(C)c1ccc(C(=O)*)cc1; Lys(Et2) = CCN(CC)CCCC[C@H](N)C(=O)O

Columns and labels:
cPRC1-TetO-mESCs = experiment: Chemical inhibition in cPRC1-TetO-mESCs (TetR-Cbx7 dual GFP/BFP reporter), flow cytometry without and with Dox; type: cell-based, mouse; conditions: for initiation of reporter gene silencing: TetR-Cbx7 tethered, absence of Dox; for maintenance of reporter gene silencing (repression): presence of Dox (1 μg/ml), increasing concentrations of compound
PRC2 = target: T1, PRC2 (Mus musculus, UniProt Q61188); experiment: Immuno blot of H3K27me3, Ezh2 and Cbx7 in parental TetO-mESCs treated with GSK126; type: cell-based
T1 construct: endogenous in cells; host or cells: parental TetO-mESCs (mouse embryonic stem cells derived from haploid mESCs)
T1 sequence (Q61188 whole entry): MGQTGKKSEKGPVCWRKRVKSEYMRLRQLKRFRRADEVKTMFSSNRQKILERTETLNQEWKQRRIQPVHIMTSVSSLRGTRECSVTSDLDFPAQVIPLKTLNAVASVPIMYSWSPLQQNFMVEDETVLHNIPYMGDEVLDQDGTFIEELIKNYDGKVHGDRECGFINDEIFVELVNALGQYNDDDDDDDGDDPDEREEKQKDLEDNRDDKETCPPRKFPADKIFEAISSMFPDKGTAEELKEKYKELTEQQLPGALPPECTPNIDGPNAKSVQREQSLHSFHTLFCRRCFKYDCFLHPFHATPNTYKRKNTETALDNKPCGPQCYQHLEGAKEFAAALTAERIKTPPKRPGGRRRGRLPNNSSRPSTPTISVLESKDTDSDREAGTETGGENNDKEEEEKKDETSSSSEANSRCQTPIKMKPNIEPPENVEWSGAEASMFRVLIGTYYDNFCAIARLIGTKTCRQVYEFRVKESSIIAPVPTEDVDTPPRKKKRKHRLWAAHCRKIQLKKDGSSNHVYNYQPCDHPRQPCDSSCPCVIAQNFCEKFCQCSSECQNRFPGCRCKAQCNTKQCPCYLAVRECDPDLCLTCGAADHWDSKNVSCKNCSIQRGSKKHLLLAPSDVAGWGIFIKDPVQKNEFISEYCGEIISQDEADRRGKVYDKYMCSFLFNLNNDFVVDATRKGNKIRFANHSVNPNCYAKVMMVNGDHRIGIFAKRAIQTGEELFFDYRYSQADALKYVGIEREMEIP
T1 sequence (Q921E6 whole entry partner): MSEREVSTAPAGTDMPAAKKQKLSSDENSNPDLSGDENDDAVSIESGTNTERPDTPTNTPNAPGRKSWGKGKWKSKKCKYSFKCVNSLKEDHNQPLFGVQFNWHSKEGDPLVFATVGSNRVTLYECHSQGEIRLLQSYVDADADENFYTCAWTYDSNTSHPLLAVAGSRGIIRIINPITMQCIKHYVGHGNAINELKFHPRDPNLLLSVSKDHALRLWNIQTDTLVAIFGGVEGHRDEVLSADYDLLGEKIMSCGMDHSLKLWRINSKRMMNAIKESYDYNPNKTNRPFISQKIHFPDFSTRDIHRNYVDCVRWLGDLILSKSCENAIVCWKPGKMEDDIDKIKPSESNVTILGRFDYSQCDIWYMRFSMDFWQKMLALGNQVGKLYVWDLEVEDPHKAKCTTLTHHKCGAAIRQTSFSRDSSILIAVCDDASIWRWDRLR
T1 sequence (Q80U70 whole entry partner): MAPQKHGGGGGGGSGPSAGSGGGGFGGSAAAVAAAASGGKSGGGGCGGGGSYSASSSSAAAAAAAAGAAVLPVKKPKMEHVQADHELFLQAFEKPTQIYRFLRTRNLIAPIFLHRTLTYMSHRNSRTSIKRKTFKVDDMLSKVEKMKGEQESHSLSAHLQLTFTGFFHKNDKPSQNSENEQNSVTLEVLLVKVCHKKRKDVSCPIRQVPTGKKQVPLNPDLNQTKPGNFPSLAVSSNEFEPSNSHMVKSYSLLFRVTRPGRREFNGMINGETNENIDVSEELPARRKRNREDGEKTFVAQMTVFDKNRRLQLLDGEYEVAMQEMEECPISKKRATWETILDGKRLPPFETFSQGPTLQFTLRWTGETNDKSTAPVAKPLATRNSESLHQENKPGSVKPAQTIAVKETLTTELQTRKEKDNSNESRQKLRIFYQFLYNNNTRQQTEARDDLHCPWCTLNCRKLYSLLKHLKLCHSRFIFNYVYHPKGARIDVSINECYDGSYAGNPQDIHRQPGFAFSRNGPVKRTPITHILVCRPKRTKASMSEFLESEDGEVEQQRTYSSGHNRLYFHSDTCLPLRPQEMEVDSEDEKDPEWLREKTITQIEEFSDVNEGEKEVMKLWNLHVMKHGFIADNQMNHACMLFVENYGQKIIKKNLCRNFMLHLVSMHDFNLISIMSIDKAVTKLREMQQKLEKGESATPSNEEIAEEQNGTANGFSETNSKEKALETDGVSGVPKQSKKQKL
T1 sequence (Q60972 whole entry partner): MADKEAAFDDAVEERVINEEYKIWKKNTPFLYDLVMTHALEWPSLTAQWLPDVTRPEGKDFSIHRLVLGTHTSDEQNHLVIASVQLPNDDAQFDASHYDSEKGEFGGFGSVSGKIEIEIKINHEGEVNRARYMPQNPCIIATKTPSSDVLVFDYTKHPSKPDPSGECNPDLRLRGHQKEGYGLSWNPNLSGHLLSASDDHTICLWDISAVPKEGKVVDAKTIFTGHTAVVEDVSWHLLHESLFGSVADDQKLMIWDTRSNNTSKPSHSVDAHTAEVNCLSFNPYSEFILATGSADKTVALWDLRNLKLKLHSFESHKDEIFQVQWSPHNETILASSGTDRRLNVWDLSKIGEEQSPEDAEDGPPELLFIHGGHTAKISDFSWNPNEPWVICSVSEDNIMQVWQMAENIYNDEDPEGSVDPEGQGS
Method: Nuclear extract from 10×10^6 mESCs was obtained by lysis in Buffer A (final: 25 mM Hepes ph 7.6, 5 mM MgCl2, 25 mM KCl, 0.05 mM EDTA, 10% Glycerol, 1 mM DTT, 1 mM PMSF, 1× Complete Mini protease inhibitor) followed by collection in RIPA buffer (final: 150 mM NaCl, 1% triton, 0.5% sodium deoxy-cholate, 0.1% SDS, 50 mM Tris pH 8.0). Nuclear extracts were homogenized by sonication in a Diagenode Bioruptor and concentration was determined by Bradford assay (Biorad). 20 μg/lane total protein was run on Novex Life Technology NuPAGE 4-12% Bis-Tris gels in Invitrogen NuPAGE MES SDS Running Buffer and transferred on a Merck Chemicals Immobilon-P Membrane (PVDF […]). The membrane was blocked (5% non-fat dry milk in 1×PBS, 0.1% Tween 20) and incubated with the following primary antibodies (5% non-fat dry milk in 1×PBS, 0.1% Tween 20): H3K27me3 (Diagenode, C15410195), Cbx7 (Abcam, ab21873), RYBP (Sigma, PRS2227), H2AK119ub (Cell Signaling, D27C4), Ezh2 (Active Motif, 39901). Finally, the membrane was incubated with corresponding secondary HRP coupled antibodies (5% non-fat dry milk in 1×PBS, 0.1% Tween 20), developed using Clarity Western ECL Substrate (Biorad) and imaged by a ChemiDoc XRS+ Imaging system (Biorad).

Structure (SMILES) | initiation of reporter gene silencing (cPRC1-TetO-mESCs) | maintenance of reporter gene silencing (repression) (cPRC1-TetO-mESCs) | H3K27me3 by Western blot (PRC2; GSK126-treated parental mESCs (4 μM per FIG. 10A)) | inhibition of the catalytic activity of PRC2 (PRC2; parental TetO-mESCs, 4 μM GSK126, immuno blot) | endogenous PRC2 and cPRC1 stability (PRC2; parental TetO-mESCs, 4 μM GSK126, immuno blot of Ezh2 and Cbx7) | reduction in silencing, distal BFP reporter compared with proximal GFP reporter (cPRC1-TetO-mESCs; presence of Dox)
CCN(CC)CCCC[C@H](NC(=O)[C@H](CC(C)C)NC(=O)[C@H](C)NC(=O)[C@H](Cc1ccccc1)NC(=O)c1ccc(C(C)(C)C)cc1)C(=O)N[C@@H](CO)C(=O)OC [UNC3866] ({Benzoyl(4-tBu)}-FAL[Lys(Et2)]S-OMe) | Neither compound had a significant effect | disrupted only by UNC3866 treatment in a dose-dependent manner | – | – | – | –
CC[C@H](C)n1cc(C)c2c(C(=O)NCc3c(C)cc(C)[nH]c3=O)cc(-c3ccc(N4CCNCC4)nc3)cc21 [GSK126] | did not disrupt | reduced by GSK126-treatment in a dose-dependent manner | undetectable | specific and reversible inhibition | without disrupting | more prominent at the distal BFP reporter than the proximal GFP promoter
